Source: PubChem BioAssay AID192 (DTP/NCI, 2004)
Where “and” joins values, the source holds several entries; their conditions need not be identical. Identical values can stand only once. Toxic doses and inconclusive results are not listed.

Test system: BDF1 mice, B16 melanoma ip, median survival T/C
Experiment: NCI In Vivo Anticancer Drug Screen. Data for tumor model B16 Melanoma (intraperitoneal) in B6D2F1 (BDF1) mice
Settings: endpoint: median survival time, higher = longer survival
Protocol: The antitumor activity of compounds was measured in mice bearing transplantable tumors. Survival or tumor size were measured and the results are expressed as the measurement made in the treated group (T) divided by the measurement made in the vehicle treated control group (C). The tumor model used in this assay is B16 Melanoma (intraperitoneal) in B6D2F1 (BDF1) mice

[1] = dose: 6.25 mg/kg/injection, schedule: Q01DX009 (ip), vehicle: saline
[2] = dose: 25.0 mg/kg/injection, schedule: Q01DX009 (ip), vehicle: saline
[3] = dose: 100.0 mg/kg/injection, schedule: Q04DX003 (ip), vehicle: saline with Tween-80
[4] = dose: 200.0 mg/kg/injection, schedule: Q04DX003 (ip), vehicle: saline with Tween-80
[5] = dose: 100.0 mg/kg/injection, schedule: Q01DX009 (ip), vehicle: Klucel (hydroxypropylcellulose) (HPC)
[6] = dose: 200.0 mg/kg/injection, schedule: Q01DX009 (ip), vehicle: Klucel (hydroxypropylcellulose) (HPC)
[7] = dose: 400.0 mg/kg/injection, schedule: Q01DX009 (ip), vehicle: Klucel (hydroxypropylcellulose) (HPC)
[8] = dose: 0.25 mg/kg/injection, schedule: Q01DX009 (ip), vehicle: saline
[9] = dose: 0.5 mg/kg/injection, schedule: Q01DX009 (ip), vehicle: saline
[10] = dose: 100.0 mg/kg/injection, schedule: Q04DX003 (ip), vehicle: saline

Question: What does the source list for CN1C2CCC1CC(OC(c1ccccc1)c1ccccc1)C2 (stereo not given)?
Answer: T/C (dose: 1.56 mg/kg/injection, schedule: Q01DX009 (ip), vehicle: saline): 102 % of control; T/C (dose: 3.12 mg/kg/injection, schedule: Q01DX009 (ip), vehicle: saline): 107 % of control; T/C [1]: 107 % of control; T/C (dose: 12.5 mg/kg/injection, schedule: Q01DX009 (ip), vehicle: saline): 110 % of control; T/C [2]: 107 % of control

Question: For CCCCC(CC)COP(OCC(CC)CCCC)OCC(CC)CCCC (stereo not given), which T/C [3] is on record?
Answer: 93 % of control

Question: And the T/C [4]?
Answer: 86 % of control

Question: With COc1ccc(NC(=O)COc2ccccc2Br)cc1 as the compound, how does the T/C [5] read?
Answer: 103 % of control

Question: What about the T/C [6] of the same compound?
Answer: 100 % of control

Question: What about the T/C [7] of the same compound?
Answer: 93 % of control

Question: With COc1ccc(NC(=O)Nc2ccc(Cl)cc2C)cc1 as the compound, how does the T/C (dose: 100.0 mg/kg/injection, schedule: Q01DX009 (sc), vehicle: olive oil, sesame oil, peanut oil) read?
Answer: 101 % of control

Question: And the T/C (dose: 200.0 mg/kg/injection, schedule: Q01DX009 (sc), vehicle: olive oil, sesame oil, peanut oil)?
Answer: 111 % of control

Question: What about the T/C (dose: 400.0 mg/kg/injection, schedule: Q01DX009 (sc), vehicle: olive oil, sesame oil, peanut oil) of the same compound?
Answer: 103 % of control

Question: How did the T/C (dose: 0.06 mg/kg/injection, schedule: Q01DX009 (ip), vehicle: Klucel (hydroxypropylcellulose) (HPC)) turn out when CO[C@@]12[C@H](COC(N)=O)C3=C(C(=O)C(C)=C(N)C3=O)N1C[C@@H]1N[C@@H]12 was run?
Answer: 113 % of control

Question: And the T/C (dose: 0.1 mg/kg/injection, schedule: Q04DX003 (ip), vehicle: saline)?
Answer: 99 % of control

Question: And the T/C (dose: 0.13 mg/kg/injection, schedule: Q01DX001 (ip), vehicle: clinical formulation)?
Answer: 105 % of control

Question: What about the T/C (dose: 0.13 mg/kg/injection, schedule: Q01DX009 (ip), vehicle: Klucel (hydroxypropylcellulose) (HPC)) of the same compound?
Answer: 114 % of control

Question: And the T/C (dose: 0.13 mg/kg/injection, schedule: Q01DX009 (ip), vehicle: saline)?
Answer: 117 % of control

Question: What about the T/C (dose: 0.2 mg/kg/injection, schedule: Q04DX003 (ip), vehicle: saline) of the same compound?
Answer: 113 % of control

Question: And the T/C (dose: 0.22 mg/kg/injection, schedule: Q01DX009 (ip), vehicle: saline)?
Answer: 103 % of control

Question: What about the T/C (dose: 0.25 mg/kg/injection, schedule: Q01DX001 (ip), vehicle: clinical formulation) of the same compound?
Answer: 114 % of control

Question: And the T/C (dose: 0.25 mg/kg/injection, schedule: Q01DX009 (ip), vehicle: Klucel (hydroxypropylcellulose) (HPC))?
Answer: 110 % of control

Question: And the T/C [8]?
Answer: 103 % of control

Question: And the T/C (dose: 0.36 mg/kg/injection, schedule: Q01DX009 (ip), vehicle: saline)?
Answer: 117 % of control

Question: What about the T/C (dose: 0.5 mg/kg/injection, schedule: Q01DX001 (ip), vehicle: clinical formulation) of the same compound?
Answer: 123 % of control

Question: What about the T/C (dose: 0.5 mg/kg/injection, schedule: Q01DX009 (ip), vehicle: Klucel (hydroxypropylcellulose) (HPC)) of the same compound?
Answer: 113 % of control

Question: And the T/C [9]?
Answer: 159 % of control

Question: And the T/C (dose: 0.54 mg/kg/injection, schedule: Q01DX009 (ip), vehicle: saline)?
Answer: 154 % of control and 217 % of control

Question: And the T/C (dose: 0.54 mg/kg/injection, schedule: Q01DX010 (ip), vehicle: saline)?
Answer: 114 % of control

Question: And the T/C (dose: 0.6 mg/kg/injection, schedule: Q01DX009 (ip), vehicle: saline)?
Answer: 151 % of control

Question: And the T/C (dose: 0.9 mg/kg/injection, schedule: Q01DX010 (ip), vehicle: saline)?
Answer: 107 % of control

Question: What about the T/C (dose: 1.0 mg/kg/injection, schedule: Q01DX007 (ip), vehicle: saline) of the same compound?
Answer: 152 % of control

Question: And the T/C (dose: 1.0 mg/kg/injection, schedule: Q01DX009 (ip), vehicle: Klucel (hydroxypropylcellulose) (HPC))?
Answer: 181 % of control and 189 % of control

Question: And the T/C (dose: 1.0 mg/kg/injection, schedule: Q01DX009 (ip), vehicle: saline sonified)?
Answer: 169 % of control

Question: What about the T/C (dose: 1.0 mg/kg/injection, schedule: Q04DX003 (ip), vehicle: clinical formulation) of the same compound?
Answer: 159 % of control

Question: What about the T/C (dose: 1.5 mg/kg/injection, schedule: Q01DX010 (ip), vehicle: saline) of the same compound?
Answer: 101 % of control

Question: What about the T/C (dose: 1.5 mg/kg/injection, schedule: Q04DX003 (ip), vehicle: clinical formulation) of the same compound?
Answer: 151 % of control

Question: And the T/C (dose: 1.5 mg/kg/injection, schedule: Q04DX003 (ip), vehicle: saline)?
Answer: 164 % of control

Question: What about the T/C (dose: 1.6 mg/kg/injection, schedule: Q04DX003 (ip), vehicle: saline) of the same compound?
Answer: 172 % of control

Question: And the T/C (dose: 1.67 mg/kg/injection, schedule: Q01DX009 (ip), vehicle: saline)?
Answer: 151 % of control

Question: And the T/C (dose: 2.0 mg/kg/injection, schedule: Q01DX001 (ip), vehicle: clinical formulation)?
Answer: 153 % of control

Question: What about the T/C (dose: 2.0 mg/kg/injection, schedule: Q04DX003 (ip), vehicle: clinical formulation) of the same compound?
Answer: 236 % of control

Question: What about the T/C (dose: 2.5 mg/kg/injection, schedule: Q01DX009 (ip), vehicle: saline) of the same compound?
Answer: 34 % of control and 57 % of control

Question: And the T/C (dose: 2.5 mg/kg/injection, schedule: Q01DX010 (ip), vehicle: saline)?
Answer: 105 % of control

Question: What about the T/C (dose: 3.0 mg/kg/injection, schedule: Q04DX003 (ip), vehicle: clinical formulation) of the same compound?
Answer: 260 % of control

Question: And the T/C (dose: 3.0 mg/kg/injection, schedule: Q04DX003 (ip), vehicle: saline)?
Answer: 193 % of control

Question: What about the T/C (dose: 3.2 mg/kg/injection, schedule: Q04DX003 (ip), vehicle: saline) of the same compound?
Answer: 231 % of control

Question: What about the T/C (dose: 4.0 mg/kg/injection, schedule: Q01DX007 (ip), vehicle: saline) of the same compound?
Answer: 57 % of control

Question: How did the T/C (dose: 6.0 mg/kg/injection, schedule: Q01DX009 (ip), vehicle: saline) turn out when CCCCCC(CN(C)C)C(O)/C=C/c1ccccc1Cl (stereo not given) was run?
Answer: 96 % of control

Question: And the T/C (dose: 12.0 mg/kg/injection, schedule: Q01DX009 (ip), vehicle: saline)?
Answer: 98 % of control

Question: And the T/C [2]?
Answer: 103 % of control

Question: For COc1ccc2nc3ccccc3c(NCCNCCO)c2c1, which T/C (dose: 10.0 mg/kg/injection, schedule: Q01DX009 (ip), vehicle: saline) is on record?
Answer: 123 % of control

Question: CCCCCCCCCCCCSC(=O)CCC(=O)O was tested. Which T/C (dose: 50.0 mg/kg/injection, schedule: Q04DX003 (ip), vehicle: Klucel (hydroxypropylcellulose) (HPC)) did it give?
Answer: 108 % of control

Question: What about the T/C (dose: 100.0 mg/kg/injection, schedule: Q04DX003 (ip), vehicle: Klucel (hydroxypropylcellulose) (HPC)) of the same compound?
Answer: 108 % of control

Question: What about the T/C (dose: 200.0 mg/kg/injection, schedule: Q04DX003 (ip), vehicle: Klucel (hydroxypropylcellulose) (HPC)) of the same compound?
Answer: 102 % of control

Question: Which T/C [5] does the source give for Cc1ccc(C)c(NC(=O)c2ccccc2Cl)c1 here?
Answer: 118 % of control

Question: And the T/C [6]?
Answer: 93 % of control

Question: And the T/C [7]?
Answer: 109 % of control

Question: With O=S(=O)(O)CNc1ccccc1 as the compound, how does the T/C [10] read?
Answer: 104 % of control

Question: And the T/C (dose: 200.0 mg/kg/injection, schedule: Q04DX003 (ip), vehicle: saline)?
Answer: 97 % of control

Question: And the T/C (dose: 400.0 mg/kg/injection, schedule: Q04DX003 (ip), vehicle: saline)?
Answer: 106 % of control

Question: c1nnc(NCNc2nncs2)s1 was tested. Which T/C [1] did it give?
Answer: 108 % of control

Question: What about the T/C [2] of the same compound?
Answer: 122 % of control

Question: And the T/C (dose: 50.0 mg/kg/injection, schedule: Q04DX003 (ip), vehicle: saline)?
Answer: 109 % of control

Question: What about the T/C [10] of the same compound?
Answer: 119 % of control

Question: Which results are given for CCOc1ccc(NC(=O)C(C)O)cc1 (stereo not given)?
Answer: T/C (dose: 100.0 mg/kg/injection, schedule: Q01DX009 (ip), vehicle: saline with Tween-80): 97 % of control; T/C (dose: 200.0 mg/kg/injection, schedule: Q01DX009 (ip), vehicle: saline with Tween-80): 97 % of control; T/C (dose: 400.0 mg/kg/injection, schedule: Q01DX009 (ip), vehicle: saline with Tween-80): 91 % of control

Question: What does the source list for N#CO?
Answer: T/C (dose: 18.7 mg/kg/injection, schedule: Q01DX009 (ip), vehicle: saline): 100 % of control; T/C (dose: 37.5 mg/kg/injection, schedule: Q01DX009 (ip), vehicle: saline): 105 % of control; T/C (dose: 75.0 mg/kg/injection, schedule: Q01DX009 (ip), vehicle: saline): 105 % of control

Question: With Cc1cnc([Se])[nH]c1=O as the compound, how does the T/C (dose: 6.25 mg/kg/injection, schedule: Q01DX009 (ip), vehicle: water) read?
Answer: 100 % of control

Question: And the T/C (dose: 12.5 mg/kg/injection, schedule: Q01DX009 (ip), vehicle: water)?
Answer: 96 % of control

Question: What about the T/C (dose: 25.0 mg/kg/injection, schedule: Q01DX009 (ip), vehicle: water) of the same compound?
Answer: 96 % of control

Question: And the T/C (dose: 50.0 mg/kg/injection, schedule: Q01DX009 (ip), vehicle: water)?
Answer: 101 % of control

Question: Which T/C [3] does the source give for O=C(COc1ccccc1)CC(O)(C(F)(F)F)C(F)(F)F here?
Answer: 100 % of control

Question: And the T/C [4]?
Answer: 92 % of control

Question: What about the T/C (dose: 400.0 mg/kg/injection, schedule: Q04DX003 (ip), vehicle: saline with Tween-80) of the same compound?
Answer: 97 % of control

Question: Which T/C (dose: 0.12 mg/kg/injection, schedule: Q01DX009 (ip), vehicle: saline) does the source give for COc1cc([C@@H]2c3cc4c(c(O)c3C[C@H]3COC(=O)[C@@H]32)OCO4)cc(OC)c1O here?
Answer: 97 % of control

Question: What about the T/C (dose: 0.12 mg/kg/injection, schedule: Q01DX009 (ip), vehicle: suspension in saline) of the same compound?
Answer: 100 % of control

Question: And the T/C [8]?
Answer: 97 % of control

Question: And the T/C (dose: 0.25 mg/kg/injection, schedule: Q01DX009 (ip), vehicle: suspension in saline)?
Answer: 96 % of control

Question: What about the T/C [9] of the same compound?
Answer: 107 % of control

Question: What about the T/C (dose: 0.5 mg/kg/injection, schedule: Q01DX009 (ip), vehicle: suspension in saline) of the same compound?
Answer: 105 % of control

Question: And the T/C (dose: 1.0 mg/kg/injection, schedule: Q01DX009 (ip), vehicle: saline)?
Answer: 95 % of control
